Each structure is given as a SMILES string.

For the test, the system named is HCV 1b genotype replicon. Briefly: HCV genotype-1b replicon assay (qRT-PCR or luciferase). To be noted: Hepatitis C virus, read-out: Genotype-1b replicon EC50 Range. The format is cell-based. The source says:
HCV replicon cell lines (kindly provided by R. Bartenschlager) isolated from colonies as described by Lohman et. al. (Lohman et al. (1999) Science 285: 110-113, expressly incorporated by reference in its entirety) and used for all experiments. The HCV replicon has the nucleic acid sequence set forth in EMBL Accession No.: AJ242651, the coding sequence of which is from nucleotides 1801 to 8406.
The coding sequence of the published HCV replicon was synthesized and subsequently assembled in a modified plasmid pBR322 (Promega, Madison, Wis.) using standard molecular biology techniques. […]
EC50 values of single agent compounds and combinations were determined by HCV RNA detection using quantitative RT-PCR, according to the manufacturer's instructions, with a TAQMAN® One-Step RT-PCR Master Mix Reagents Kit (Cat# AB 4309169, Applied Biosystems) on an ABI Model 7500 thermocycler. The TaqMan primers used for detecting and quantifying HCV RNA were obtained from Integrated DNA Technologies. HCV RNA was normalized to GAPDH RNA levels in drug-treated cells, which was detected and quantified using the Human GAPDH Endogenous Control Mix (Applied Biosystems, AB 4310884E). […] Chemical agent cytotoxicity was evaluated using an MTS assay according to the manufacturer's directions (Promega). […]
(Replicon systems follow genome replication, usually without infectious particles.)

Broadly, the EC50 is the concentration giving half of the maximal effect. Consider `COC(=O)N[C@H](C(=O)N1CCC[C@H]1C(=O)Nc1ncc(-c2ccc3cc(-c4cnc([C@@H]5CCCN5C(=O)[C@@H](NC(=O)OC)C(C)C)[nH]4)ccc3c2)cn1)C(C)C` [Compound 348], for which the EC50 fell in the range of 1 to 10 nM.

The record behind these values is patent US8815928B2, “Hepatitis C virus inhibitors” (priority 2009, dated 2014).
